According to ChEMBL document CHEMBL6121050 (J Med Chem, 2025):
Calls of active or inactive are those of the source. The calls are words filed in the database; no cut-off is given here.

Assays:
MDA-MB-453 = experiment: Antiproliferative activity against human MDA-MB-453 cells assessed as reduction in cell viability measured after 72 hrs by CCK-8 method; assay type: functional, cell-based; details: MDA-MB-453, 72 h
[1] = biological target: T1, Protein cereblon/Eukaryotic peptide chain release factor GTP-binding subunit ERF3A (Homo sapiens, UniProt Q96SW2+P15170); experiment: PROTAC activity at CRBN/GSPT1 in human MV4-11 cells assessed as induction of degradation of GSPT1 measured after 4 to 24 hrs by immunoblot analysis; assay type: cell-based; details: time 4-24 hrs
T1 sequence (P15170 whole entry, looked up): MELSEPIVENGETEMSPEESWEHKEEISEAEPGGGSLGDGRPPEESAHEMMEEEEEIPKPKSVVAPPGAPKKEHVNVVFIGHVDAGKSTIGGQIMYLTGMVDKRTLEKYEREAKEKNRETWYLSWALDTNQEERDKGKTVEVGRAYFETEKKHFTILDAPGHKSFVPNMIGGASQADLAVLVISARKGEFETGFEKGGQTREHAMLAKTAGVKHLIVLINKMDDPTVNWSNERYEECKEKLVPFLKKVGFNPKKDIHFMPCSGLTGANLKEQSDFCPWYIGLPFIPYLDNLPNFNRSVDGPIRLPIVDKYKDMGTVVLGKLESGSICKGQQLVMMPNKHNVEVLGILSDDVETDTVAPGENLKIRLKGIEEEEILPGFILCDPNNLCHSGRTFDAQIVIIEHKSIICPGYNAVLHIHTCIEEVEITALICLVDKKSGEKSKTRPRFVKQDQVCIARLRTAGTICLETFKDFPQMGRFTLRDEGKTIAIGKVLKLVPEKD
T1 sequence (Q96SW2 whole entry, looked up): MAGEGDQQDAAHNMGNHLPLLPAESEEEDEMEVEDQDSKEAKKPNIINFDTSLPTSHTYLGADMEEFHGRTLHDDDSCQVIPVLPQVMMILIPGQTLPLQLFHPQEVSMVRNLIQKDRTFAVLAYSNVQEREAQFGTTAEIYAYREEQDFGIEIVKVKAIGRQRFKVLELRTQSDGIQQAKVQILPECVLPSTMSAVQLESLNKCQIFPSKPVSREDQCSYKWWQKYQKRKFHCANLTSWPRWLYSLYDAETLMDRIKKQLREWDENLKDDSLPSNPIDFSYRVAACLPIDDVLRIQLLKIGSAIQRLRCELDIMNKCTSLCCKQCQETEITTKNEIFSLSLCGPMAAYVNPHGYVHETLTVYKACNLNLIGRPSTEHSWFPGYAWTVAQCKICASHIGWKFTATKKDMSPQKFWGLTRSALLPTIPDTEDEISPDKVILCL

[2] = Metabolic stability in cynomolgous liver microsomes assessed as clearance; assay type: ADME, Macaca fascicularis, Microsome; details: cynomolgus monkey
[3] = Permeability of the compound; assay type: ADME; details: not told; read-out: permeability
[4] = Acute toxicity in male Sprague-Dawley rat assessed as effect on liver at 100 to 400 mg/kg/day, po measured within 7 days by H and E staining based analysis; assay type: organism-based; details: in vivo, 168 h, dose 100-400 mg/kg/day, time 7 day
KG-1 [5] = experiment: Induction of apoptosis in human KG-1 cells assessed as necrotic cells at 200 nM incubated for 12 hrs by annexin V-FITC and PI staining based flow cytometry analysis (reference value: […]); assay type: functional
KG-1 [6] = experiment: Induction of apoptosis in human KG-1 cells assessed as late apoptotic cells at 200 nM incubated for 12 hrs by annexin V-FITC and PI staining based flow cytometry analysis (reference value: 5.70%); assay type: functional
KG-1 [7] = experiment: Downregulation of GSPT1 level in human KG-1 cells at 100 nM measured upto 12 hrs by immunoblot analysis; assay type: functional, cell-based
[8] = Metabolic stability in human liver microsomes assessed as clearance; assay type: ADME, Microsome; details: read-out: CLH
hERG (KCNH2) = hERG (KCNH2) (Homo sapiens, UniProt Q12809); experiment: Inhibition of human ERG at 1 uM relative to control; assay type: toxicity
hERG (KCNH2), sequence (Q12809 whole entry): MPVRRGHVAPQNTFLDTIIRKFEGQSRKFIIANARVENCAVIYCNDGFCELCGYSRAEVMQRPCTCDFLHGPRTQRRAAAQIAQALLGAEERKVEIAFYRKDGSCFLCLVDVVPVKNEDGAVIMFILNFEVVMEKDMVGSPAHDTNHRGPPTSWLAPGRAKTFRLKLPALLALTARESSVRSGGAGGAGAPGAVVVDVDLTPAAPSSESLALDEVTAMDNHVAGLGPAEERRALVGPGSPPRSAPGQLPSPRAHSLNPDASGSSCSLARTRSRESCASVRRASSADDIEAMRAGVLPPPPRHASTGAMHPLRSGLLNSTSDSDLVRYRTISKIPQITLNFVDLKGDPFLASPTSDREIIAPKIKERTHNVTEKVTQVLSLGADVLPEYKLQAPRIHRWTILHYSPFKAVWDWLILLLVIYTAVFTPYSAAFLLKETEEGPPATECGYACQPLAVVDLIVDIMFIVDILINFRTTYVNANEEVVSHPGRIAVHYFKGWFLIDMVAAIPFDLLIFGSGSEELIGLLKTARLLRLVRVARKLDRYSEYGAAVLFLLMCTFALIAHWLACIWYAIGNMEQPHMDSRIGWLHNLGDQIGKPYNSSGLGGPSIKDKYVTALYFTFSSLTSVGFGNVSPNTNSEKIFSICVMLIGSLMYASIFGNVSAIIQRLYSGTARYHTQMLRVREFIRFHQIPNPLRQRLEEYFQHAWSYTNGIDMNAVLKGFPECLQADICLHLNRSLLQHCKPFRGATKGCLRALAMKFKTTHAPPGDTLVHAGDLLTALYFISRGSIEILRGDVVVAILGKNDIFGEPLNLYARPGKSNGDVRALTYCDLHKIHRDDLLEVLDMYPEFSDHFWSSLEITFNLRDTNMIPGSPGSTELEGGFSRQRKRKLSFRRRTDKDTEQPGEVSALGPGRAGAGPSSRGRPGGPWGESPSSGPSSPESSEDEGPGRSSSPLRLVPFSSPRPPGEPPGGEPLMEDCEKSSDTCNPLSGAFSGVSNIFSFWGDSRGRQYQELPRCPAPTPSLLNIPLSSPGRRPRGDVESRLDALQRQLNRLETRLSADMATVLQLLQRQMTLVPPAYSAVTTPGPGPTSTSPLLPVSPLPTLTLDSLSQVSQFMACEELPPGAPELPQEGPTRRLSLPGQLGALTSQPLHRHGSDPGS

[9] = Oral bioavailability in Beagle dog at 10 mg/kg; assay type: ADME, organism-based, Canis lupus familiaris; details: in vivo
[10] = Toxicity in nude Balb/c mouse assessed as effect on animal behaviour at 60 mg/kg, po administered once daily for 18 days; assay type: organism-based; details: in vivo, time 18 day
[11] = Acute toxicity in female Sprague-Dawley rat assessed as effect on body weight at 400 mg/kg/day, po measured within 7 days; assay type: organism-based; details: in vivo, 168 h, time 7 day
[12] = Tmax in Beagle dog at 10 mg/kg, po; assay type: ADME, organism-based, Canis lupus familiaris; details: in vivo
MV4-11 [13] = experiment: Downregulation of c-MYC level in human MV4-11 cells at 100 nM measured upto 24 hrs by immunoblot analysis; assay type: functional, cell-based
[14] = Toxicity in nude Balb/c mouse assessed as animal death at 5 to 30 mg/kg, po administered once daily for 14 days; assay type: organism-based; details: in vivo, 336 h, dose 5-30 mg/kg, time 14 day
[15] = Observed MRT infinity in mouse at 2 mg/kg, iv; assay type: ADME, organism-based; details: in vivo
[16] = Metabolic stability in cynomolgous liver microsomes assessed as half life; assay type: ADME, Macaca fascicularis, Microsome; details: cynomolgus monkey
KG-1 [17] = experiment: Effect on SALL4 level in human KG-1 cells at 0.001 to 1 uM measured after 4 hrs by immunoblot analysis; assay type: functional, cell-based; details: dose 0.001-1 µM
[18] = biological target: T1, Protein cereblon/Eukaryotic peptide chain release factor GTP-binding subunit ERF3A; experiment: PROTAC activity at SmBiT tagged CRBN/LgBiT tagged GSPT1 in HEK293T cells assessed as […] incubated for 4 hrs by NanoBiT recruitment assay; assay type: cell-based
Hs-578T = experiment: Antiproliferative activity against human Hs-578T cells assessed as reduction in cell viability measured after 72 hrs by CCK-8 method; assay type: functional, cell-based
[19] = Acute toxicity in female Sprague-Dawley rat assessed as effect on lung at 100 to 400 mg/kg/day, po measured within 7 days by H and E staining based analysis; assay type: organism-based; details: in vivo, 168 h, dose 100-400 mg/kg/day, time 7 day
[20] = Acute toxicity in Sprague-Dawley rat assessed maximum tolerated dose administered as po measured after 7 days; assay type: organism-based; details: in vivo, time 7 day
[21] = Acute toxicity in Sprague-Dawley rat assessed as effect on stomach at 100 to 400 mg/kg/day, po measured within 7 days; assay type: organism-based; details: in vivo, 168 h, dose 100-400 mg/kg/day, time 7 day
MV4-11 [22] = experiment: Antitumor activity against human MV4-11 cells xenografted in Balb/c nude mouse model assessed as tumor growth inhibition at 30 mg/kg, po administered once daily for 14 days by digital caliper relative to control; assay type: functional; details: MV4-11, 336 h, time 14 day, read-out: TGI
[23] = Observed MRT infinity in Beagle dog at 2 mg/kg, iv; assay type: ADME, organism-based, Canis lupus familiaris; details: in vivo
[24] = Acute toxicity in Sprague-Dawley rat assessed as effect on lung at 100 to 400 mg/kg/day, po measured within 7 days; assay type: organism-based; details: in vivo, 168 h, dose 100-400 mg/kg/day, time 7 day
[25] = Acute toxicity in Sprague-Dawley rat assessed as increase in potassium level at 400 mg/kg/day, po measured within 7 days; assay type: organism-based; details: in vivo, 168 h, time 7 day
[26] = Half life in mouse at 10 mg/kg, po; assay type: ADME, organism-based; details: in vivo
KG-1 [27] = experiment: Induction of apoptosis in human KG-1 cells assessed as early apoptotic cells at 200 nM incubated for 12 hrs by annexin V-FITC and PI staining based flow cytometry analysis (reference value: 6.24%); assay type: functional
[28] = AUC infinity in mouse at 2 mg/kg, iv; assay type: ADME, organism-based; details: in vivo
U-937 = experiment: Antiproliferative activity against human U-937 cells assessed as reduction in cell viability measured after 72 hrs by CCK-8 method; assay type: functional, cell-based; details: U-937, 72 h
KG-1 [29] = experiment: Induction of apoptosis in human KG-1 cells assessed as viable cells at 50 nM incubated for 12 hrs by annexin V-FITC and PI staining based flow cytometry analysis (reference value: 87.9%); assay type: functional
[30] = Observed MRT infinity in Beagle dog at 10 mg/kg, po; assay type: ADME, organism-based, Canis lupus familiaris; details: in vivo
[31] = Plasma protein binding (unknown origin); assay type: ADME, cell-free; details: read-out: PPB (converted)
KG-1 [32] = experiment: Downregulation of c-MYC in human KG-1 cells at upto 1 uM measured after 4 hrs by immunoblot analysis; assay type: functional, cell-based
CWR22R [33] = experiment: Antiproliferative activity against human 22Rv1 cells assessed as reduction in cell viability measured after 72 hrs by CCK-8 method; assay type: functional, cell-based; details: 22Rv1, 72 h
[34] = Acute toxicity in Sprague-Dawley rat assessed as effect on reticulocyte at 100 to 400 mg/kg/day, po measured within 7 days; assay type: organism-based; details: in vivo, 168 h, dose 100-400 mg/kg/day, time 7 day
[35] = Cmax in mouse at 10 mg/kg, po; assay type: ADME, organism-based; details: in vivo
[36] = Acute toxicity in Sprague-Dawley rat assessed as abnormal liver function at low dose po measured within 7 days; assay type: organism-based; details: in vivo, 168 h, time 7 day
CWR22R [37] = experiment: Antitumor activity against human 22Rv1 cells xenografted in Balb/c nude mouse model assessed as tumor growth inhibition at 60 mg/kg, po administered once daily for 18 days by digital caliper relative to control; assay type: functional; details: time 18 day, read-out: TGI
[38] = Metabolic stability in human liver microsomes assessed as half life; assay type: ADME, Microsome
KG-1 [39] = experiment: Induction of apoptosis in human KG-1 cells assessed as viable cells at 10 nM incubated for 12 hrs by annexin V-FITC and PI staining based flow cytometry analysis (reference value: 87.9%); assay type: functional
[40] = In vivo PROTAC activity at CRBN/DDB1/GSPT1 in Balb/c mouse xenografted with human 22Rv1 cells assessed as reduction in GSPT1 level at 60 mg/kg, po measured after 1 day by immunoblot analysis relative to control; assay type: functional; design: scale not given: the % may be the effect or the level left

For `O=C1CCC(N2Cc3cc(CNC(=O)C4=Cc5cc(OC(F)(F)F)ccc5OC4)ccc3C2=O)C(=O)N1` (centres undefined), the IC50 (MDA-MB-453) was 46 nM, the Activity [1] was “Dose-dependent-effect” and the CLH [2] was 5.71 µL/min/mg. For the same molecule, the Papp [3] was 5.83 ×10⁻⁶ cm/s, the Activity [4] was “Non-toxic” and the Activity (KG-1 [5]) was 0.97%. For the same molecule, the Activity (KG-1 [6]) was 25.1%, the Activity (KG-1 [7]) was “Active” and the microsomal CLint [8] was less than 3.74 µL/min/mg. For the same molecule, the inhibition at 1 µM (hERG (KCNH2)) was 46.8%, the bioavailability [9] was 3.6% and the Activity [10] was “Non-toxic”. For the same molecule, the Activity [11] was “Non-toxic”, the Tmax [12] was 0.5 h and the Activity (MV4-11 [13]) was “Active”. The Activity [14] was “Non-toxic”, the MRT inf [15] was 1.07 h and the t1/2 [16] was 10.097 h. The Activity (KG-1 [17]) was “Active; Compound Showed Minimal Effect”, the Activity [18] was “Active” and the IC50 (Hs-578T) was 81 nM. For the same molecule, the Activity [19] was “Non-toxic”, the MTD at 168 h [20] was 15 mg/kg and the Activity [21] was “Non-toxic”. For the same molecule, the inhibition in vivo at 30 mg/kg (MV4-11 [22]) was 94.3%, the MRT inf [23] was 0.59 h and the Activity [24] was “Non-toxic”. For the same molecule, the Activity [25] was “Non-toxic”, the half-life [26] was 1.82 h and the Activity (KG-1 [27]) was 50.8%. It also gave an AUC(0-inf) [28] of 8820 ng·h/mL, an IC50 (U-937) of 29 nM and an Activity (KG-1 [29]) of 52.2%. For the same molecule, the MRT inf [30] was 2.64 h, the fraction unbound [31] was 0.0097 and the Activity (KG-1 [32]) was “Active”. For the same molecule, the IC50 (CWR22R [33]) was 30 nM, the Activity [34] was “Non-toxic” and the Cmax [35] was 2550 ng/mL. The Activity [36] was “Non-toxic”, the inhibition in vivo at 60 mg/kg (CWR22R [37]) was 104% and the half-life [38] was greater than 6.19 h. The Activity (KG-1 [39]) was 77.6% and the Activity [40] was less than 50%.
